Patent publication US12258422B2, “Cyclopeptide and method for preparing the same” (NATIONAL TSING HUA UNIVERSITY, priority 2020, dated 2025)
Several values for one entry are separate records, joined by “and”; a condition that tells them apart may be missing. Equal entries are not always repeated.

Legend:
[1] = tested on: MMP-1; assay: MMP-1 inhibition test: TNF-α-induced MMP-1 level in skin fibroblasts, ELISA; type: cell-based, human; conditions: for inhibition of MMP-1: compared to 3.3 μM of RA (set as 100%); for IC50: Hs68, TNF-α induced, calculated from inhibition rate vs concentration (FIG. 1, FIG. 2); for MMP-1 Conc.: TNF-α 20 ng/mL, Hs68
Description: Matrix Metalloproteinase-1 (MMP-1) is one of collagenases, and is involved in the degradation of the extracellular matrix (ECM). In details, fibroblasts result in the overexpression of MMP-1 after exposure to UV-containing sunlight, so that the ECM is then degraded by MMP-1.
To examine the effect of the cyclopeptide of the present disclosure, a series of MMP-1 inhibition test was conducted.
In this test, test compound and human fibroblasts were co-cultured, and cytokine tumor necrosis factor-α (TNF-α) was added as an inducer to induce the expression of MMP-1 to a high level. Then, the test compound was evaluated for the ability of reducing the MMP-1 level induced by TNF-α.
Test compound: cyclopeptide (III-3) of the present disclosure, in which Q is Cl.
Cell Line: Skin Fibroblast Hs68
First, the seeding of skin fibroblast Hs68 cells onto culture medium dish was conducted overnight, and then different concentrations (0.05 μM, 0.25 μM, 1.25 μM, 2.5 μM and 5 μM) of cyclopeptide (III-3) were added to the skin fibroblast cells for 6 hours, which was further incubated with TNF-α (20 ng/mL) for 42 hours.

[2] = Cytotoxicity (cell viability) in anti-aging evaluation; type: cell-based, human; conditions: human, hs68 human fibroblasts, (sample/control) × 100%
Description: (§1) Type I collagen is the primary component of the skin dermis. Both the quantity and quality of extracellular collagen are primarily related to skin ageing. The present embodiment was examined, by using Procollagen Type I C-Peptide (PIP) EIA Kit, effects of induction of procollagen secretion and cytotoxicity in respect of hs68 human fibroblasts.

[3] = tested on: hs68 human fibroblasts; assay: Procollagen Type I C-Peptide (PIP) EIA, induction of procollagen secretion; type: cell-based
Description: as §1

[4] = tested on: hs68 human fibroblasts; assay: Cytotoxicity (cell viability) in anti-aging evaluation; type: cell-based; conditions: TGFβ; (sample/control) × 100%
Description: as §1

N=C(N)NCCC[C@@H]1NC(=O)C2(CCNCC2)NC(=O)[C@@H](Cc2ccccc2)NC(=O)[C@H](CC(=O)O)NC(=O)CNC1=O [III-1]
inhibition of MMP-1 ([1]; 0.05 μM): 12%
inhibition of MMP-1 ([1]; 0.25 μM): 38%
inhibition of MMP-1 ([1]; 1.25 μM): 90%
IC50 [1]: 0.7 µM
MMP-1 Conc. ([1]; cyclopeptide 0.05 μM): 422.3 pg/mL
MMP-1 Conc. ([1]; cyclopeptide 0.25 μM): 378.2 pg/mL
MMP-1 Conc. ([1]; cyclopeptide 1.25 μM): 288.0 pg/mL
MMP-1 Conc. ([1]; cyclopeptide 2.5 μM): 271.8 pg/mL

CC(C)[C@H]1CC[C@H](C)CC12NC(=O)[C@@H](Cc1ccccc1)NC(=O)[C@H](CC(=O)O)NC(=O)CNC(=O)[C@H](CCCNC(=N)N)NC2=O (stereo partly drawn) [III-3]
inhibition of MMP-1 ([1]; 0.05 μM): about 60%
inhibition of MMP-1 ([1]; 0.25 μM): about 80%
inhibition of MMP-1 ([1]; 1.25 μM): ~87%
inhibition of MMP-1 ([1]; 2.5 μM): ~91%
IC50 [1]: 0.02 µM
MMP-1 Conc. ([1]; cyclopeptide 0.05 μM): 337.8 pg/mL
MMP-1 Conc. ([1]; cyclopeptide 0.25 μM): 244.2 pg/mL
MMP-1 Conc. ([1]; cyclopeptide 1.25 μM): 212.7 pg/mL
MMP-1 Conc. ([1]; cyclopeptide 2.5 μM): 194.2 pg/mL
MMP-1 Conc. ([1]; cyclopeptide 5 μM): 168.6 pg/mL

N=C(N)NCCC[C@@H]1NC(=O)C2(CCCCC2)NC(=O)[C@@H](Cc2ccccc2)NC(=O)[C@H](CC(=O)O)NC(=O)CNC1=O [III-5]
viability at 0.0008 µM ([2]; cyclopeptide 0.0008 μM): 92%
viability at 0.004 µM ([2]; cyclopeptide 0.004 μM): 97%
viability at 0.02 µM ([2]; cyclopeptide 0.02 μM): 100%
viability at 0.1 µM ([2]; cyclopeptide 0.1 μM): 97%
viability at 0.25 µM ([2]; cyclopeptide 0.25 μM): 99%
viability at 0.5 µM ([2]; cyclopeptide 0.5 μM): 100%
Procollagen Type I ([3]; cyclopeptide 0.0008 μM): 235 ng/mL
Procollagen Type I ([3]; cyclopeptide 0.004 μM): 225 ng/mL
Procollagen Type I ([3]; cyclopeptide 0.02 μM): 220 ng/mL
Procollagen Type I ([3]; cyclopeptide 0.1 μM): 208 ng/mL
Procollagen Type I ([3]; cyclopeptide 0.25 μM): 208 ng/mL
Procollagen Type I ([3]; cyclopeptide 0.5 μM): 184 ng/mL

CC1=C(/C=C/C(C)=C/C=C/C(C)=C/C(=O)O)C(C)(C)CCC1 [RA, retinoic acid, reference compound]
MMP-1 Conc. ([1]; RA 3.3 μM (positive control)): 155.9 pg/mL and 271.3 pg/mL

TGFβ [reference compound]
Cell viability [4]: 95%
Procollagen Type I ([3]; TGFβ 0.83 μM): 320 ng/mL
